The Bradley open melting point set (2014)
Where “and” joins values, the source holds several entries; their conditions need not be identical. Equal values may be shown once.

Row | Structure (SMILES) | melting point
1 | CCCCCc1ccc(-c2ccccc2)cc1 [4-n-pentylbiphenyl] | 10 °C
2 | O=[N+]([O-])c1ccc(C2OCCO2)cc1 [4-nitrobenzaldehyde ethylene glycol acetal] | 86 °C
3 | O=[N+]([O-])c1ccc2c(c1)OCCOCCOCCOCCO2 [4-nitrobenzo-15-crown-5] | 94 °C
4 | O=C(O)c1ccc([N+](=O)[O-])cc1 [4-nitrobenzoic acid] [listing 1 of 2 here] | 242 °C
5 | O=C(O)c1ccc([N+](=O)[O-])cc1 [4-nitrobenzoic acid] [listing 2 of 2 here] | 240 °C
6 | O=[N+]([O-])c1ccc(CCl)cc1 [4-nitrobenzyl_chloride] | 73 °C
7 | O=C(O)Cc1ccc([N+](=O)[O-])cc1 [4-nitrophenylacetic acid] | 154 °C
8 | O=C(O)c1ccc([N+](=O)[O-])cc1C(=O)O [4-nitrophthalic acid] | 163 °C
9 | O=[N+]([O-])c1cc[n+]([O-])c2ccccc12 [4-nitroquinoline n-oxide] | 155 °C
10 | Cc1ccc([N+](=O)[O-])cc1 [4-nitrotoluene] [listing 1 of 2 here] | 52 °C
11 | Cc1ccc([N+](=O)[O-])cc1 [4-nitrotoluene] [listing 2 of 2 here] | 53 °C
12 | O=C(O)CCC(=O)c1cccs1 [4-oxo-4-(2-thienyl)butyric acid] | 119 °C
13 | Nc1ccc(Oc2ccccc2)cc1 [4-phenoxyaniline] | 84 °C
14 | O=Cc1ccc(Oc2ccccc2)cc1 [4-phenoxybenzaldehyde] | 25 °C
15 | Oc1ccc(Oc2ccccc2)cc1 [4-phenoxyphenol] | 84 °C
16 | c1ccc(C23CCN(CC2)CC3)cc1 [4-phenylquinuclidine] | 124 °C
17 | CCCc1ccc(O)cc1 [4-propylphenol] | 22 °C
18 | OCc1ccncc1 [4-pyridinemethanol] | 54 °C
19 | CC(C)(C)c1ccc(N)cc1 [4-tert-butylaniline] | 16 °C
20 | CC(C)(C)C1CCC(=O)CC1 [4-tert-butylcyclohexanone] | 49 °C
21 | Cc1ccc(C(C)(C)C)cc1 [4-tert-butyltoluene] | -63 °C
22 | Oc1ccc(C(c2ccccc2)(c2ccccc2)c2ccccc2)cc1 [4-tritylphenol] | 281 °C
23 | C=Cc1ccc(B(O)O)cc1 [4-vinylbenzeneboronic acid] | 190 °C
24 | Nn1c(S)nnc1-c1ccc(Cl)cc1 [4H-1,2,4-triazole-3-thiol, 4-amino-5-(4-chlorophenyl)-] | 322 °C

Row | Structure (SMILES) | melting point
25 | c1cc2c3c(c1)ccc1cccc(c13)C2 [4H-Cyclopenta[def]phenanthrene] | 116 °C
26 | CC1(C)CC(=O)CC(=O)C1 [5,5-Dimethylcyclohexane-1,3-dione] | 148 °C
27 | CCC1(CC)C(=O)NC(=O)NC1=O [5,5-diethylbarbiturate] | 190 °C
28 | Oc1ccc2c(c1)CCCC2 [5,6,7,8-tetrahydro-2-naphthol] | 62 °C
29 | COc1ccc(-c2cc(=O)c3c(O)c(OC)c(O)cc3o2)cc1 [5,7-Dihydroxy-6-methoxy-2-(4-methoxyphenyl)-4H-chromen-4-one] | 225 °C
30 | COc1ccccc1-c1nnn[nH]1 [5-(2-methoxyphenyl)-1h-tetrazole] | 155 °C
31 | Cc1ccccc1-c1nnn[nH]1 [5-(2-methylphenyl)-1h-tetrazole] | 153 °C
32 | COc1cc(Cc2cnc(N)nc2N)cc(OC)c1OC [5-(3,4,5-Trimethoxybenzyl)pyrimidine-2,4-diamine] | 201 °C
33 | Cc1cccc(-c2nnn[nH]2)c1 [5-(3-methylphenyl)-1h-tetrazole] | 145 °C
34 | COc1ccc(-c2nnn[nH]2)cc1 [5-(4-methoxyphenyl)-1h-tetrazole] | 237 °C
35 | Nc1cc(Cl)ccc1[N+](=O)[O-] [5-Chlor-2-nitroanilin] | 119 °C
36 | Oc1ncc(F)c(O)n1 [5-Fluorouracil] | 283 °C
37 | O=C1NC(=O)c2cc([N+](=O)[O-])ccc21 [5-Nitro-1H-isoindole-1,3(2H)-dione] | 181 °C
38 | CC(=O)c1ccc(B(O)O)s1 [5-acetylthiophene-2-boronic acid] | 145 °C
39 | Cn1nc(-c2ccccc2)cc1N [5-amino-1-methyl-3-phenyl-1h-pyrazole] | 127 °C
40 | COc1cc(Br)cc(OC)c1OC [5-bromo-1,2,3-trimethoxybenzene] | 79 °C
41 | O=C(O)c1cc(Br)ccc1Cl [5-bromo-2-chlorobenzoic_acid] | 154 °C
42 | O=C(c1ccccc1)c1cc(Br)ccc1O [5-bromo-2-hydroxybenzophenone] | 110 °C
43 | N#Cc1cc(Br)ccc1I [5-bromo-2-iodobenzonitrile] | 121 °C
44 | O=C(O)CCCCBr [5-bromovaleric acid] | 40 °C
45 | O=C(O)c1cc(Cl)c([N+](=O)[O-])cc1[N+](=O)[O-] [5-chloro-2,4-dinitrobenzoic acid] | 181 °C
46 | Cc1cc(Cl)cc(C=O)c1O [5-chloro-2-hydroxy-3-methylbenzaldehyde] | 59 °C
47 | CNc1ccc(Cl)cc1C(=O)c1ccccc1 [5-chloro-2-methylaminobenzophenone] | 96 °C
48 | Nc1cc(Cl)ccc1[N+](=O)[O-] [5-chloro-2-nitroaniline] | 126 °C

Row | Structure (SMILES) | melting point
49 | Clc1ccc2[nH]ccc2c1 [5-chloroindole] | 71 °C
50 | O=C(O)c1ccc(Cl)s1 [5-chlorothiophene-2-carboxylic acid] | 151 °C
51 | COc1cc(C=O)cc(Cl)c1O [5-chlorovanillin] | 164 °C
52 | O=c1[nH]c(=O)n([C@H]2C[C@H](O)[C@@H](CO)O2)cc1F [5-fluoro-2'-deoxyuridine] | 150 °C
53 | Cc1ccc(F)cc1B(O)O [5-fluoro-2-methylbenzeneboronic acid] | 149 °C
54 | O=C(O)c1cc(F)ccc1O [5-fluorosalicylic acid] | 180 °C
55 | COc1ccc(C=O)cc1B(O)O [5-formyl-2-methoxybenzeneboronic acid] | 160 °C
56 | COc1cc(C(=O)O)cc(O)c1OC [5-hydroxy-3,4-dimethoxybenzoic acid] | 196 °C
57 | O=c1cc(-c2ccccc2)oc2cccc(O)c12 [5-hydroxyflavone] | 158 °C
58 | O=Cc1ccc(CO)o1 [5-hydroxymethyl-2-furaldehyde] | 34 °C
59 | COc1ccc2c(c1)no[n+]2[O-] [5-methoxybenzofuroxan] | 117 °C
60 | COc1cccc2c1C(=O)C2 [5-methoxybicyclo[4.2.0]octa-1,3,5-trien-7-one] | 35 °C
61 | C#CCCC(C)C [5-methyl-1-hexyne] | -124 °C
62 | CCC(C)CCC(C)O (centres undefined) [5-methyl-2-heptanol] | -120 °C
63 | Cc1ccc([N+](=O)[O-])c(O)c1 [5-methyl-2-nitrophenol] | 55 °C
64 | CC1=CC(c2c(C)cc(C)cc2C)N=N1 (centres undefined) [5-methyl-3-(2,4,6-trimethylphenyl)-1H-pyrazole] | 129 °C
65 | Cc1ccc2sccc2c1 [5-methylbenzo[b]thiophene] | 34 °C
66 | Cc1cc(C#N)cc(C#N)c1 [5-methylisophthalonitrile] | 164 °C
67 | Cc1cncc(C(=O)O)c1 [5-methylnicotinic acid] | 213 °C
68 | CC(O)C1(O)CCC2C3CCC4(C)CC(O)CCC4(C)C3CCC21C (centres undefined) [5-methylpregnane-3,17,20-triol] | 219 °C
69 | NNC(=O)c1ccc([N+](=O)[O-])o1 [5-nitro-2-furohydrazide] | 171 °C
70 | O=[N+]([O-])c1ccc2[nH]ccc2c1 [5-nitroindole] | 141 °C
71 | O=C(O)c1cc([N+](=O)[O-])ccc1O [5-nitrosalicylic acid] | 232 °C
72 | CCCCC(=O)CCCC [5-nonanone] | -50 °C

Row | Structure (SMILES) | melting point
73 | O=C(O)CCCCc1ccccc1 [5-phenylvaleric acid] | 59 °C
74 | CC(C)CCC[C@@H](C)[C@H]1CC[C@H]2[C@@H]3CC[C@H]4C[C@@H](O)CC[C@]4(C)[C@H]3CC[C@]12C [5alpha-cholestan-3beta-ol] | 142 °C
75 | Brc1ccc(-c2cccc(Br)n2)cn1 [6,6'-dibromo-2,3'-bipyridine] | 168 °C
76 | NCCCCCCO [6-Aminohexan-1-ol] | 56 °C
77 | Nc1ncc2ncn(COCCO)c2n1 [6-Deoxyacyclovir] | 188 °C and 189 °C
78 | O=C(Nc1ccc2cc(OC(=O)c3ccccc3)ccc2c1)c1ccccc1 [6-[(phenylcarbonyl)amino]naphthalen-2-yl benzoate] | 227 °C
79 | CC(=O)c1ccc2c(c1)CCCC2 [6-acetyl-1,2,3,4-tetrahydronaphthalene] | -21 °C
80 | NCCCCCC(=O)O [6-aminocaproic acid] | 205 °C
81 | Nc1c(Cl)cc([N+](=O)[O-])cc1[N+](=O)[O-] [6-chloro-2,4-dinitroaniline] | 157 °C
82 | Fc1nc(Cl)c2nc[nH]c2n1 [6-chloro-2-fluoropurine] | 152 °C
83 | OB(O)c1ccc(Cl)nc1 [6-chloropyridine-3-boronic acid] | 156 °C
84 | Clc1ccc2ncccc2c1 [6-chloroquinoline] | 35 °C
85 | Fc1ccc2cc[nH]c2c1 [6-fluoroindole] | 76 °C
86 | CC(C)CCCC(C)C1CCC2C3CC(O)C4=CC(=O)CCC4(C)C3CCC12C (centres undefined) [6-hydroxycholest-4-en-3-one] | 155 °C
87 | COc1ccc2cc[nH]c2c1 [6-methoxyindole] | 92 °C
88 | Cc1cccc(C(=O)O)n1 [6-methylpyridine-2-carboxylic acid] | 129 °C
89 | O=c1[nH]c2ccc([N+](=O)[O-])cc2o1 [6-nitro-2(3h)-benzoxazolone] | 246 °C
90 | CCCCCC(=O)CCCCC [6-undecanone] | 15 °C
91 | Cc1cc(=O)oc2c(O)c(O)ccc12 [7,8-dihydroxy-4-methylcomarin] | 243 °C
92 | O=C(CBr)c1ccc2c(c1)OCCCO2 [7-bromoacetyl-3,4-dihydro-1,5-benzodioxepin] | 76 °C
93 | [O-][n+]1ccc2ccc(Br)cc2c1 [7-bromoisoquinoline n-oxide] | 180 °C
94 | Cc1cc(O)n2ncnc2n1 [7-hydroxy-5-methyl[1,2,4]triazolo[1,5-a]pyrimidine] | 283 °C
